Test results reported in patent US20110086089A1, “USE OF P27KIP1 FOR THE PREVENTION AND TREATMENT OF HEART FAILURE” (UNIVERSITY HEALTH NETWORK, priority 2008, published 2011).

Key:
[1] = test system: p27 degradation in cardiomyocytes; assay: Ang II-triggered p27 degradation / p27 half-life in cardiomyocytes; assay type: cell-based, rat; details: for Ang II-triggered decrease in p27 protein levels / p27 destabilization: cardiomyocytes + Ang II, lactacystin 10 μM 30 min pre-treatment, DMAT 30 minutes prior, lentivirus 72 h; for p27 degradation: proteasome inhibitors, conditions not given
Experimental: FIG. 3 is a series of graphs, blots and cell stainings showing essential function of CK2-alpha-prime-mediated p27 degradation for cardiomyocyte hypertrophy. […] Cells were transduced with TAT-conjugated wt.p27 (2.5 μg/ml), phosphorylation resistant p27deltaPi, or phosphomimicking mutant p27.S83D/T187D for 1 h before Ang II addition for 4 h. Isotypic anti-CK2-alpha-prime immunocomplex kinase assays were performed employing histone H1 substrate. Input levels of transduced TAT-fusion proteins were determined prior to Ang II addition by immunoblotting of total cell extracts. Mean±s.e.m., n=3. *P<0.01 vs unstimulated cells. **P<0.01 vs Ang II. #P<0.01. endog, endogenous. (B) Pharmacological inhibition of the 26S-proteasome abrogates Ang II-triggered p27 degradation. […] Alternatively, lactacystin-treated cardiomyocytes were transduced with TAT-conjugated CK2-alpha-prime or p27deltaPi (2.5 μg/ml) for 1 h prior to Ang II addition. Anti-CK2-alpha-prime immunocomplex kinase assays were performed employing histone H1 as substrate. Western blots of total cell extracts (50 μg/lane) were probed with antibodies as indicated on the left. (C) Inhibition of CK2-alpha-prime prevents Ang II-induced degradation of p27. […] Cells were then chased with excess cold methionine in the presence of Ang II and cycloheximide (100 μg/ml) to block protein synthesis for the indicated timepoints. Alternatively, cells were incubated with DMAT for 30 minutes prior to Ang II stimulation. p27 was immunoprecipitated employing anti-p27 covalently linked to protein A-agarose. Aliquots of total cell extracts were resolved on SDS-PAGE, transferred to nitrocellulose-membranes, autoradiographed (right panel), and quantified with ImageJ software (left panel). (B, C) One typical result of two independent experiments is shown. (D) Subcellular localization of p27 and S83 phosphorylated p27 in Ang II-stimulated cardiomyocytes. Cells were transduced with lentiviruses encoding siCK2-alpha-prime or siControl for 72 h prior to Ang II treatment for the indicated timepoints. […] De novo protein synthesis was determined by in vivo labeling of cardiomyocytes with [^35S]methionine (right panel). Cell size was determined by indirect immunofluorescence microscopy employing anti-tropomyosin staining and ImageJ. Expression levels of endogenous CK2-alpha-prime and p27 were determined by immunoblotting of total cell extracts employing specific antibodies as indicated. Ectopic SR.CK2-alpha-prime and SR.p27 were detected using anti-His. […]
For metabolic labeling, cardiomyocytes were pulsed-labeled with 100 μCi/ml [^35S]methionine/cysteine (1000 Ci/mmol; EasyTag, NEN) for 2 h in methionine/cysteine-deficient medium (DME, ICN). […] The amount of incorporated radioactive label was determined with ImageJ software. […]

[2] = test system: p27 phosphorylation at S83 and T187 in cardiomyocytes; assay: p27 phosphorylation at S83 and T187 in Ang II-treated cardiomyocytes (Western blot); assay type: cell-based, rat; details: Ang II 4 h; lentiviruses 72 h; DMAT 20 μM pre-incubated 30 min; TAT-conjugated CK2-alpha-prime 2.5 μg/ml 1 h
Experimental: FIG. 2 is a series of graphs and blots showing Ang II triggers CK2-alpha-prime-dependent phosphorylation of p27 on S83 and T187 in cardiomyocytes. (A) p27 is a substrate of CK2-alpha-prime. […] In vitro kinase assays employing recombinant wt.p27 (1 μg) or phosphorylation site mutants of p27 as substrates were incubated with recombinant CK2-alpha-prime/beta (200 ng). Aliquots of the reaction mixtures were resolved on SDS-PAGE, electrotransferred to nitrocellulose membranes, and the amount of incorporated radioactive [^32P}-label into p27 was quantified with a PhosphorImager and ImageJ software. Individual membranes were probed with anti-CK2-alpha-prime, anti-p27 (input), or phosphorylation site specific antibodies to p27. […] Samples were resolved on SDS-PAGE, transferred to nitrocellulose-membranes, and the amount of incorporated radioactive label into histones was quantified with a PhosphorImager and ImageJ. The input amount of each CK2-alpha-prime and p27 protein used in the kinase reaction mixtures was monitored by immunoblot analysis employing anti-His. […] Biochemically fractionated extracts corresponding to 4×10^5 cells per lane were analyzed by immunoblotting employing antibodies as indicated on the left. […]

WT mice = assay: Reversal of established Ang II-dependent cardiac hypertrophy (16 days infusion, injections from day 8); assay type: in vivo; details: daily i.p. injections 20 mg/kg initiated at day 8
From the text: FIG. 10 is the experimental treatment protocol. To examine the therapeutic effect of p27 on established cardiac hypertrophy, p27 injections were initiated at 8 days after Ang II-infusion.
To examine the effect of transduced p27 on established cardiac hypertrophy, mice were chronically infused with Ang II for 16 days and intraperitoneally injected recombinant TAT-conjugated p27ΔPi and beta-galactosidase (β-Gal) proteins starting from day 8. After 16 days of Ang II-infusion, the heart/body weight ratio were increased by 45% compared to saline-infused controls (FIG. 11B; group 7 vs. group 6). […] Transduced p27ΔPi regressed the increase in heart size by 47% as compared to β-Gal control injections (group 3 vs group 4). In Ang II-infused mice treated with p27ΔPi values of left ventricular posterior wall and interventricular septum thickness, LVEDD, LVESD, FS and EF were not significant different compared to saline-infused mice. Thus, p27 can reverse established compensated cardiac hypertrophy without exerting any deleterious effect on cardiac function.
Spontaneously beating cardiomyocytes from heart ventricles of neonatal rats were cultured and subjected to treatment with angiotensin II (Ang II). DMAT (2-dimethylamino-4,5,6,7-tetrabromo-1H-benzimidazol), DMSO, lactacystin and LLM were obtained from Calbiochem. Ang II was purchased from Sigma. Animal usage was in accordance with approved institutional animal care guidelines. Age-matched male WI C57BL/6 and p27^−/− mice were used in this study. For results shown in FIGS. 1 to 9: Ang II was chronically infused subcutaneously by osmotic pumps (model 2000, Alzet) at a dose of 1.4 μg/kg per minute for 14 days. TAT.proteins (10 mg/kg) were injected intraperitoneally once daily for 14 days. For results shown in FIGS. 10 to 12: Ang II was chronically infused subcutaneously by osmotic pumps (model 2000, Alzet) at a dose of 0.7 μg/kg per minute for 16 days. TAT.proteins (20 mg/kg) were injected intraperitoneally once daily for 8 days starting at day 8. Thoracic aortic banding (TAB) and pressure gradient measurements were performed as described^39.
After fixation in paraformaldehyde (4% in PBS, pH 7.4), a transverse midsection (3 μm thickness) was stained with Alexa Fluor® 488-conjugated wheat germ agglutinin for cross sectional measurements. Cardiomycoyte area was determined by planimetry employing ImageJ software. A total of 200 cells were counted in each group.

Compound: CN(C)c1nc2c(Br)c(Br)c(Br)c(Br)c2[nH]1 [DMAT, 2-dimethylamino-4,5,6,7-tetrabromo-1H-benzimidazol, reference compound]
- Ang II-triggered decrease in p27 protein levels / p27 destabilization [1]: prevented p27 destabilization
- S83/T187 phosphorylation of p27 in cardiomyocytes [2]: abolished

Compound: CC(C)C[C@H](NC(=O)[C@H](Cc1ccccc1)NC(=O)c1cnccn1)B(O)O [PS-341]
- p27 degradation [1]: inhibit p27 degradation

Compound: CC(=O)N[C@@H](CSC(=O)[C@]1([C@@H](O)C(C)C)NC(=O)[C@H](C)[C@@H]1O)C(=O)O [lactacystin]
- Ang II-triggered decrease in p27 protein levels / p27 destabilization [1]: sensitive to proteasome inhibition

Compound: TAT-β-Gal: recombinant TAT-conjugated beta-galactosidase, control injections
- Heart weight (WT mice; Ang II infusion 16 days (0.7 μg/kg per minute)): 159 ± 7.3 mg
- FS (WT mice; Ang II infusion 16 days): 44 ± 1.6 %
- Heart weight/body weight (WT mice; Ang II infusion 16 days): 6.9 ± 0.2 mg/g
- IVSD (WT mice; Ang II infusion 16 days): 1.4 ± 0.1 mm
- LVEDD (WT mice; Ang II infusion 16 days): 3.8 ± 0.1 mm
- LVEF (WT mice; Ang II infusion 16 days): 78 ± 3.7 %
- LVESD (WT mice; Ang II infusion 16 days): 2.7 ± 0.2 mm
- PWD (WT mice; Ang II infusion 16 days): 1.4 ± 0.1 mm

Compound: alpha-methylomuralide
- p27 degradation [1]: inhibit p27 degradation
